Results as given in article PMC12196235, “Enhancing the Pharmacological Properties of Triterpenes Through Acetylation: An Anticancer and Antioxidant Perspective” (Molecules, 2025).
Values joined by “and” are separate entries in the source; they are usually repeats but may differ in a detail not shown here. Equal values may be shown once. Read-outs that look alike come from different tables or passages of the source.

Legend:
[1] = test system: J774A.1 (macrophage-like cell line); conditions: ref 106; cited from earlier work
[2] = test system: Hep-G2 (human hepatocellular carcinoma); conditions: cited from earlier work
[3] = test system: HSV-1/153 (Herpes simplex virus type 1 ACV-resistant strain); conditions: ref 15; read-out: antiviral EC50 (HSV-1/153); cited from earlier work
[4] = test system: KB-VIN (multidrug resistant human epidermoid carcinoma); conditions: ref 104; cited from earlier work
[5] = CUPRAC antioxidant assay; conditions: calculated from Trolox standard curve
Experimental: (§1) The results are presented as % inhibition of the copper(II) ions and Trolox equivalent calculated from the standard curve (Figure 9) and as % inhibition of the DPPH radical and Trolox equivalent, calculated from the standard curve (Figure 10).
(§2) The CUPRAC reagent (7.5 mM ethanolic 96% neocuproine solution, 10 mM CuCl2 × H2O solution and an ammonium acetate buffer of pH 7.0) and DPPH reagent (2,2-diphenyl-1-picrylhydrazyl 0.2 mM solution) were applied.
(§3) The CUPRAC method measures the reducing power of a sample by quantifying its ability to convert the Cu-neocuproine reagent complex to the Cu(I) form. In contrast, the DPPH assay relies on the ability of an antioxidant to donate a hydrogen atom or an electron to the stable DPPH radical, resulting in its reduction and subsequent color change. The results are presented as % inhibition of the copper(II) ions and Trolox equivalent calculated from the standard curve (Figure 9) and as % inhibition of the DPPH radical and Trolox equivalent, calculated from the standard curve (Figure 10). The spectroscopic detection in CUPRAC and DPPH assays was conducted with Synergy H1 Multi-Mode Microplate Reader (BioTek Instruments, Inc., Winooski, VT, USA). The details of the experiments are given in [102].

[6] = test system: SKOV-3 (human ovarian carcinoma); conditions: MTT assay, data published earlier, read-out: IC50 (±SD), SKOV-3; cited from earlier work
[7] = DPPH antioxidant assay; conditions: calculated from Trolox standard curve
Experimental: as §1, §2, §3

[8] = test system: A-549 (human lung carcinoma); conditions: cited from earlier work
[9] = test system: HDF (human dermal fibroblasts); conditions: MTT assay, normal dermal fibroblasts; data published earlier; read-out: IC50 (±SD), HDF; cited from earlier work
[10] = test system: Escherichia coli; conditions: ref 16; cited from earlier work
[11] = test system: Salmonella typhi; conditions: ref 16; cited from earlier work
[12] = test system: HeLa, KB, MCF-7, A-549, PC-3 and SKOV-3; assay: MTT assay, summary over the cancer cell lines; type: cell-based, human; conditions: classification by IC50 (good ≤ 10 μM, moderate 10–30 μM, ref 83)
Experimental: (§4) All the cell lines and mediums were obtained from the American Type Culture Collection (ATCC) supplied by LGC-Standards (Lomianki, Poland). Human cancer cell lines were cultured as follows: HeLa (human cervix carcinoma) and KB (human oral squamous carcinoma) lines were cultured in DMEM (Dulbecco’s Modified Eagle’s Medium); MCF-7 (human breast carcinoma) and A-549 (human lung carcinoma) were cultured in RPMI 1640 medium; PC-3 (human prostate carcinoma) was cultured in F-12K medium; SKOV-3 (human ovarian cystadenocarcinoma) was cultured in McCoy’s modified medium; HDF (human normal dermal fibroblasts) was cultured in Fibroblast Basal Medium. Each medium was supplemented with 10% fetal bovine serum, 1% L- glutamine and 1% penicillin/streptomycin solution. The cell lines were kept in an incubator at 37 °C.
(§5) All the tested cell lines (HeLa, KB, MCF-7, A-549, PC-3, SKOV-3 and HDF) were subjected to MTT assay. In short, this assay is based on the reaction between mitochondria enzymes (dehydrogenases) of tested cell lines and 3-(4,5-dimethylthiazol-2-yl)-2,5-diphenyltetrazolium bromide (MTT). The final product of this reaction gives violet formazan crystals. The number of live cells is proportional to the amount of formazan and is represented by the violet dye reagent. The details of the experiments are given in [19].

[13] = test system: KB (human oral squamous carcinoma); conditions: ref 104; cited from earlier work
[14] = test system: HSV-1/Blue (Herpes simplex virus type 1 ACV-resistant strain); conditions: ref 15; read-out: antiviral EC50 (HSV-1/Blue); cited from earlier work
[15] = test system: HSV-1/106 (Herpes simplex virus type 1 ACV-resistant strain); conditions: ref 15; read-out: antiviral EC50 (HSV-1/106); cited from earlier work
[16] = test system: HT-29 (human colorectal adenocarcinoma); conditions: ref 105; read-out: IC50 (HT-29); cited from earlier work
[17] = test system: HCT-116 (human colorectal carcinoma); conditions: ref 20; cited from earlier work
[18] = test system: Staphylococcus aureus; conditions: ref 16; cited from earlier work
[19] = test system: RAW 264.7; conditions: ref 106; cited from earlier work
[20] = test system: B16-F10 (murine melanoma); conditions: cited from earlier work
[21] = test system: HDF (human dermal fibroblasts); assay: MTT assay, normal HDF; type: cell-based; conditions: Homo sapiens, Fibroblast, read-out: IC50 (±SD), HDF
Experimental: as §4, §5

[22] = test system: HeLa (human cervical epithelioid carcinoma); conditions: ref 56; read-out: anticancer IC50 (HeLa); cited from earlier work
[23] = test system: MCF-7 (human breast carcinoma); conditions: ref 55; read-out: anticancer IC50 (MCF-7); cited from earlier work
[24] = test system: MCF-7 (human breast carcinoma); conditions: MTT assay, data published earlier, read-out: IC50 (±SD), MCF-7; cited from earlier work
[25] = test system: KB (human oral squamous carcinoma); conditions: MTT assay, data published earlier; cited from earlier work
[26] = test system: A-549 (human lung carcinoma); conditions: MTT assay, data published earlier, read-out: IC50 (±SD), A-549; cited from earlier work
[27] = test system: HeLa (human cervical epithelioid carcinoma); conditions: MTT assay, data published earlier, read-out: IC50 (±SD), HeLa; cited from earlier work
[28] = test system: A-549 (human lung carcinoma); assay: MTT assay, A-549; type: cell-based; conditions: IC50 HDF / IC50 A-549
Experimental: as §4, §5

[29] = test system: SKOV-3 (human ovarian carcinoma); assay: MTT assay, SKOV-3; type: cell-based
Experimental: as §4, §5

[30] = test system: PC-3 (human prostate carcinoma); assay: MTT assay, PC-3; type: cell-based
Experimental: as §4, §5

[31] = test system: KB (human oral squamous carcinoma); assay: MTT assay, KB; type: cell-based; conditions: IC50 HDF / IC50 KB
Experimental: as §4, §5

[32] = test system: MDA MB-231 (human epithelial adenocarcinoma); set-up: method as in doi:10.1002/slct.201803101; conditions: ref 56; read-out: anticancer IC50 (MDA MB-231); cited from earlier work
[33] = test system: HeLa (human cervical epithelioid carcinoma); assay: MTT assay, HeLa; type: cell-based; conditions: IC50 HDF / IC50 HeLa
Experimental: as §4, §5

[34] = test system: MCF-7 (human breast carcinoma); assay: MTT assay, MCF-7; type: cell-based; conditions: IC50 HDF / IC50 MCF-7
Experimental: as §4, §5

Structure (SMILES): CC1(C)CC[C@]2(C(=O)O)CC[C@]3(C)C(=CC[C@@H]4[C@@]5(C)CC[C@H](O)C(C)(C)[C@@H]5CC[C@]43C)[C@@H]2C1 [1a, oleanolic acid]
- IC50 [1]: 35.2 µM
- IC50 ([2]; ref 18, 19, read-out: anticancer IC50 (Hep-G2)): 16.2 µM
- IC50 ([2]; ref 105, read-out: IC50 (Hep-G2)): 212 µM
- EC50 [3]: 13.1 µM
- IC50 [4]: > 10 µM
- Trolox Equivalent, CUPRAC Assay [5]: 0.1031 ± 0.00684 mg/mL
- IC50 [6]: 18.8 µM
- Trolox Equivalent, DPPH Assay [7]: 0.02633 ± 0.00109 mg/mL
- IC50 ([8]; ref 104, read-out: IC50 (A-549)): 6.4 µM
- IC50 [9]: 24.9 µM
- antibacterial MBC (Escherichia coli) [10]: 900 µg/mL
- antibacterial MIC (E. coli) [10]: 95 µg/mL
- antibacterial MBC (Salmonella typhi) [11]: 300 µg/mL
- antibacterial MIC (S. typhi) [11]: 65 µg/mL
- cytotoxic activity class [12]: high or moderately high activity
- IC50 [13]: > 10 µM
- EC50 [14]: 13.1 µM
- EC50 [15]: 12.9 µM
- IC50 [16]: 430 µM
- anticancer IC50 (HCT-116) [17]: anticancer: IC50 = 40 µg × mL^−1 (HCT-116)
- antibacterial MBC (Staphylococcus aureus) [18]: 700 µg/mL
- antibacterial MIC (S. aureus) [18]: 95 µg/mL
- IC50 [19]: 41.7 µM
- IC50 ([20]; ref 105): 106 µM
- IC50 ([20]; ref 107): 106 µM

Structure (SMILES): C=C(C)[C@@H]1CC[C@]2(C)CC[C@]3(C)[C@H](CC[C@@H]4[C@@]5(C)CC[C@H](O)C(C)(C)[C@@H]5CC[C@]43C)[C@@H]12 [6a, lupeol]
- IC50 [21]: 29 µM
- IC50 [22]: 31.9 µM
- IC50 [23]: 80 µM
- Trolox Equivalent, CUPRAC Assay [5]: 0.136 mg/mL and 0.136 ± 0.00593 mg/mL
- IC50 [24]: 51.8 µM
- IC50 ([8]; ref 56, read-out: anticancer IC50 (A-549)): 64.8 µM
- IC50 [25]: 51.2 µM
- IC50 [26]: 45.7 µM
- IC50 [27]: 37.7 µM
- Selectivity index (SI), A-549 [28]: 0.63
- IC50 ([29]; Homo sapiens, SK-OV-3, MTT assay, SKOV-3, read-out: IC50 (±SD), SKOV-3): 14.6 µM
- Selectivity index (SI), SKOV-3 ([29]; IC50 HDF / IC50 SKOV-3): 1.99
- IC50 ([30]; Homo sapiens, MTT assay, PC-3, read-out: IC50 (±SD), PC-3): 14.5 µM
- Selectivity index (SI), PC-3 ([30]; IC50 HDF / IC50 PC-3): 2.00
- Selectivity index (SI), KB [31]: 0.57
- IC50 [32]: 46.1 µM
- Selectivity index (SI), HeLa [33]: 0.77
- Selectivity index (SI), MCF-7 [34]: 0.56
